The test system of data set [1] is S. aureus ATTC 6538P. In words: Extracellular infection of osteoblastic MG63 cells, CFU in cell culture supernatant. Format: cell-based, Staphylococcus aureus. As to conditions: 24 h; 100 μg/ml gentamicin, 1 μg/ml rifampin, 100 μg/ml fosfomycin disodium, alone or combined with rifampin; FIG. 1. The protocol: (§1) Osteoblastic MG63 cells were detached with the cell detachment medium Accutase 24 hours before infection. The cell number was determined using the Neubauer counting chamber. Cells were seeded onto uncoated 24 well plates with a cell density of 1.5×10^4 cells/cm^2 in 1 ml DMEM (Dulbecco's Modified Eagle's Medium) with 10% FCS (fetal calf serum), 1% Glutamax-I and 1% Natrium Pyruvat and incubated at 37° C. and 5% CO2.
The cell culture supernatant of the osteoblastic MG63 cells was removed with a pipette from the wells. 1 ml containing 1×10^6 S. aureus ATTC 6538P cells was added to each well. Two 24 well plates were incubated with S. aureus ATTC 6538P. The combined osteoblastic cells and bacteria were incubated for 1.5 h at 37° C. under 5% CO2 atmosphere. The presence of bacteria was determined using a microscope.
After 1.5 h the supernatant was removed and the wells were carefully washed twice with 37° C. warm DMEM without additives. It was microscopically checked, if not too many cells were detached during the washing procedure.
After incubation for 24 h, 100 μl of the cell culture supernatant was streaked out on Caso agar plates (Casein-peptone soymeal-peptone broth) directly, e.g. in case of rifampin, fosfomycin, rifampin/fosfomycin and rifmpicin/gentamicin, or after appropriate dilution, e.g. 1:100 in case of gentamicin, and incubated overnight at 37° C. […]

Data set [2] concerns S. aureus BAA44. Described as above. The class given is cell-based, Staphylococcus aureus. As to conditions: 24 h; 100 μg/ml vancomycin, 10 μg/ml rifampin, 100 μg/ml fosfomycin, alone or combined with rifampin; rifampin resistant MRSA strain; FIG. 2. The protocol:
Following antibiotics were used: • 100 μg/ml vancomycin • 10 μg/ml rifampin • 100 μg/ml fosfomycin • 10 μg/ml rifampin+100 μg/ml fosfomycin • 10 μg/ml rifampin+100 μg/ml vancomycin.
After incubation for 24 h 100 μl of the cell culture were streaked out on Caso agar plates (Casein-peptone soymeal-peptone broth) directly, e.g. in case of vancomycin, rifampin/fosfomycin and rifampin/vancomycin, or after appropriate dilution, e.g. 1:100 in case of rifampin and fosfomycin, and incubated overnight at 37° C. The supernatant of two wells per group was streaked out.

The subject of data set [3] is S. aureus BAA44 in osteoblastic MG63 cells. In words: Intracellular infection of osteoblastic MG63 cells after lysostaphin, cell lysis and intracellular CFU count. Format: cell-based, Staphylococcus aureus. The conditions noted are these: 24 h; fosfomycin 50-400 μg/ml, rifampin 2.5-40 μg/ml, mixtures in varying ratios; FIG. 4a-g. The protocol: Only one 24 well plate was handled and the other plates were stored at 4° C. in order to minimize bacterial growth in the lysate.
(§2) The lower the CFU value is the lower is the infection rate of the osteoblastic cells with S. aureus BAA44. This correlates to the efficacy of the added antibiotic.

The conditions of data set [4]: in vivo; cited from earlier work.
Data set [5] concerns S. aureus ATTC 6538P in osteoblastic MG63 cells. In words: Intracellular infection of osteoblastic MG63 cells after lysostaphin, metabolic activity (MTT, absorbance 540 nm). The conditions noted are these: 24 h.
For data set [6], the system named is S. aureus. The conditions noted are these: drug concentration-dependent; cited from earlier work.
Data set [7] concerns S. aureus BAA44. In words: Acute infection of osteoblastic MG63 cells without lysostaphin, CFU per well of intracellular and adhered bacteria. Format: cell-based, Staphylococcus aureus. As to conditions: for effect on CFU per well of intracellular and adhered S. aureus BAA44: 18 h, FIG. 6. The protocol: as §1
The cell culture supernatant of the osteoblastic MG63 cells was removed with a pipette from the wells. 1 ml containing 1×10^6 S. aureus BAA44 CFU was added to each well containing also antibiotics having the following compositions: • 50 μg/ml vancomycin • 2.5 μg/ml rifampin • 1.25-10 μg/ml daptomycin • and their mixtures in different ratios as given below.
The combined osteoblastic cells, bacteria, and antibiotic compositions were incubated for 18 h at 37° C. under 5% CO2 atmosphere.
Afterwards the cells were washed once with PBS pH 7.4 (phosphate buffer solution) followed by lysis with 1 ml 0.1% Triton X100 in ringer's solution. The lysates were thoroughly resuspended with a pipette. Only one 24 well plate was handled and the other plates were stored at 4° C. in order to minimize bacterial growth in the lysate.
as §2

For data set [8], the system named is S. aureus BAA44. In words: Adhesion of bacteria on coated titanium discs, CFU per disc. As to conditions: 1.5 h, 200 μg/cm^2 vancomycin or 50 μg/cm^2 rifampin + 200 μg/cm^2 fosfomycin calcium, FIG. 5c. The class given is cell-based, Staphylococcus aureus. The procedure: The experimental set up was essentially the same as described above for S. aureus ATTC 6538P.
The coated titanium discs were washed either once or twice with 5 ml PBS before incubation with S. aureus BAA44 for 1.5 h.

Data set [9] has as its system S. aureus BAA44. In words: Bactericidal activity of coated titanium discs in Minimal Medium, CFU in supernatant and on discs. The conditions noted are these: 15.5 h in Minimal Medium, discs washed three times. The class given is cell-based, Staphylococcus aureus. The protocol: The bacterial density was determined photometrically.
The Minimal Medium was used instead of Caso Bouillon to minimize the bacterial growth.
Afterwards the CFU in the supernatant as well as the adhered bacteria on the titanium discs were analysed. The supernatant was diluted 1:10 in PBS, 100 μl of the dilution were streaked out on Caso agar plates.

Data set [10] concerns S. aureus ATTC 6538P. The conditions noted are these: 200 μg/cm^2 vancomycin, FIG. 5a.
Experimental: An overnight culture of S. aureus ATTC 6538P was prepared by infecting 5 ml Caso-Bouillon medium with S. aureus ATTC 6538P. The cultures were incubated with shaking (450 U/min) over night at 37° C. 100 μl of the overnight cultures were transferred into 5 ml Caso Boulillon medium and incubated for 2 h at 37° C. with shaking (450 U/min). The bacterial density was determined photometrically. The bacterial suspension was diluted 1:2 in Caso Bouillon prior measurement. A bacterial suspension with a density of 1×10^5 CFU/ml in Caso Boullion with 10% FCS was used for the adhesion experiments.
After coating the titanium discs were washed either one time or three times with PBS. The coated and uncoated titanium discs were incubated for 5 min at room temperature with 5 ml PBS. This was repeated two more times. In the third circle the titanium discs were incubated for 1 h at room temperature. Before removing the PBS solution the titanium discs were turned or swiveled in order to increase the detachment of the antibiotics. Afterwards the titanium discs were transferred into sterile 12 well plates. […]
Afterwards the bacterial suspension was removed and the discs were washed three times with 2.5 ml PBS. […] The agar plates were incubated over night at 37° C. and the next day the colonies were counted.
The mark [11] stands for this setting: 2.5 μg/ml rifampin, 50 μg/ml vancomycin.
Where [12] appears, read: 100 μg/ml vancomycin, 100 μg/ml gentamicin, 0.01-100 μg/ml rifampin, 1 μg/ml rifampin + 100 μg/ml fosfomycin or gentamicin, FIG. 3a-d.

The values that follow come from US8921365B2, “Pharmaceutical composition, substrate comprising a pharmaceutical composition, and use of a pharmaceutical composition” (priority 2007, dated 2014).

Read-outs that look alike come from different tables or passages of the source.

`C[C@@H]1O[C@@H]1P(=O)(O)O` [fosfomycin]: in data set [1], the “effect on CFU of S. aureus ATTC 6538P in cell culture supernatant” value is given as “moderate”. In addition, the “effect on CFU of S. aureus BAA44 in cell culture supernatant” value in data set [2] is “relatively small”. Moreover, the “effect on CFU per well of intracellular located S. aureus BAA44” value in data set [3] is recorded as “good efficacy”. Moreover, in data set [4], the “concentrations allowing for intravenous application” value is 100 to 400 µg/mL and the “concentrations allowing for intravenous application, preferred, in serum” value was 132 to 297 µg/mL. Besides, the “metabolic activity of infected osteoblastic MG63 cells” value in data set [5] (10 μg/ml fosfomycin, FIG. 3b) is recorded as “increases the metabolic activity only slightly”. In addition, in data set [5] (100 μg/ml fosfomycin, FIG. 3b), the “metabolic activity of infected osteoblastic MG63 cells” value is listed as “almost doubled”.

In the case of `O=C(O)c1ccccc1O` [salicylic acid], the “maximum reduction of S. aureus virulence parameters” value in [6] is reported as “approximately 50%”.

For `CO[C@H]1/C=C/O[C@@]2(C)Oc3c(C)c(O)c4c(O)c(c(/C=N/N5CCN(C)CC5)c(O)c4c3C2=O)NC(=O)/C(C)=C\C=C\[C@H](C)[C@H](O)[C@@H](C)[C@@H](O)[C@@H](C)[C@H](OC(C)=O)[C@@H]1C` [rifampin], the “effect on CFU of S. aureus ATTC 6538P in cell culture supernatant” value in [1] was “moderate”. Besides, the “effect on CFU of S. aureus BAA44 in cell culture supernatant” value in data set [2] is “hardly any efficacy”. The “effect on CFU per well of intracellular located S. aureus BAA44” value in [3] is given as “good intracellular potency”. Besides, in data set [7] (2.5 μg rifampin, data not shown), the “overgrowth of the MG63 cells with planktonic S. aureus BAA44” value was “prevented efficacious”. The “effect on CFU per well of intracellular and adhered S. aureus BAA44” value in data set [7] (setting [11]) was “less than for vancomycin and daptomycin”. In addition, the “metabolic activity of infected osteoblastic MG63 cells” value in data set [5] (setting [12]) was “reduce the cell death caused by S. aureus ATTC 6538P drastically”. Besides, the “concentration sufficient in increasing the metabolic activity” value in data set [5] (FIG. 3a) turned out to be 0.006 µg/mL.

As to `CCCCCCCCCC(=O)N[C@@H](Cc1c[nH]c2ccccc12)C(=O)N[C@H](CC(N)=O)C(=O)N[C@@H](CC(=O)O)C(=O)N[C@@H]1C(=O)NCC(=O)N[C@@H](CCCN)C(=O)N[C@@H](CC(=O)O)C(=O)N[C@H](C)C(=O)N[C@@H](CC(=O)O)C(=O)NCC(=O)N[C@H](CO)C(=O)N[C@@H]([C@H](C)CC(=O)O)C(=O)N[C@@H](CC(=O)c2ccccc2N)C(=O)O[C@@H]1C` [daptomycin], the “effect on CFU per well of intracellular and adhered S. aureus BAA44” value in data set [7] (1.25 μg/ml daptomycin) is reported as “good efficacy”; in [7] (2.5 μg/ml daptomycin), “good efficacy”; in data set [7] (5 μg/ml daptomycin) it was “eradicate the infection completely”; in data set [7] (10 μg/ml daptomycin), “eradicate the infection completely”.

Take `CN[C@H](CC(C)C)C(=O)N[C@H]1C(=O)N[C@@H](CC(N)=O)C(=O)N[C@H]2C(=O)N[C@H]3C(=O)N[C@H](C(=O)N[C@H](C(=O)O)c4cc(O)cc(O)c4-c4cc3ccc4O)[C@H](O)c3ccc(c(Cl)c3)Oc3cc2cc(c3O[C@@H]2O[C@H](CO)[C@@H](O)[C@H](O)[C@H]2O[C@H]2C[C@](C)(N)[C@H](O)[C@H](C)O2)Oc2ccc(cc2Cl)[C@H]1O` [vancomycin]: the “anti-adhesive effect, CFU per titanium disc” value in data set [8] (discs washed once) is listed as “reduced the adhesion”; in data set [8] (discs washed twice), “no reduction of bacterial adhesion”; in data set [10] (discs washed one time before 1.5 h incubation), “anti-adhesive effect after one washing step”; in data set [10] (discs washed three times before 1.5 h incubation), “did not reveal any anti-adhesive effect”. Also, the “bactericidal effect of the coating” value in data set [9] is given as “could not exhibit any bactericidal effect”. In addition, the “CFU in the supernatant” value in data set [9] (200 μg/cm^2 vancomycin or 300 μg/cm^2 fosfomycin calcium + 70 μg/cm^2 rifampin, FIG. 5d) is “reduced the bacterial growth in the cell culture supernatant compared to the uncoated control slightly”. For the same compound, the “CFU adhered to the titanium disc” value in [9] (FIG. 5d) is “more than 50,000 CFU”. The “effect on CFU per well of intracellular and adhered S. aureus BAA44” value in [7] (setting [11]) was “several hundred”. Further, in data set [5] (setting [12]), the “metabolic activity of infected osteoblastic MG63 cells” value was “strongly reduced”.
